Laboratory results from patent US8952024B2, “Herbicidal pyrimidone derivatives” (E I du Pont de Nemours and Company, priority 2009, dated 2015).

Columns and labels:
Experiment in all cases: Test B pre-/postemergence plant response
Assay type in all cases: in vivo
[1] = system: lambsquarters (Chenopodium album)
In short: (§1)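 Seeds were sown in loam soil/sand blend and treated preemergence with compound in non-phytotoxic solvent mixture containing surfactant; postemergence sprays, same formulation, went onto plants 2 to 18 cm (1- to 4-leaf stage) in peat-based planting medium. Greenhouse 13 to 15 days, then visual rating versus untreated controls, 0 (no effect) to 100 (complete control).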

[2] = system: goosegrass (Eleusine indica)
In short: as §1

[3] = system: johnsongrass (Sorghum halepense)
In short: as §1

[4] = system: Surinam grass (Brachiaria decumbens)
In short: as §1

[5] = system: morningglory (Ipomoea coccinea)
In short: as §1

[6] = system: pigweed (Amaranthus retroflexus)
In short: as §1

[7] = system: woolly cupgrass (Eriochloa villosa)
In short: as §1

[8] = system: green foxtail (Setaria viridis)
In short: as §1

kochia (Kochia scoparia) = system: kochia (Kochia scoparia)
In short: as §1

corn (Zea mays) = system: corn (Zea mays)
In short: as §1

[9] = system: downy bromegrass (Bromus tectorum)
In short: as §1

[10] = system: large crabgrass (Digitaria sanguinalis)
In short: as §1

[11] = system: yellow nutsedge (Cyperus esculentus)
In short: as §1

soybean (Glycine max) = system: soybean (Glycine max)
In short: as §1

[12] = system: velvetleaf (Abutilon theophrasti)
In short: as §1

wild oat (Avena fatua) = system: wild oat (Avena fatua)
In short: as §1

[13] = system: blackgrass (Alopecurus myosuroides)
In short: as §1

[14] = 250 g ai/ha, Preemergence, 0 to 100 scale
[15] = Postemergence, 31 g ai/ha, scale 0 to 100 (0 no effect, 100 complete control)
[16] = Postemergence, 62 g ai/ha, scale 0 (no effect) to 100 (complete control), 13 to 15 days
[17] = Postemergence, 125 g ai/ha, visual rating after 13 to 15 days, scale 0 (no effect) to 100 (complete control)
[18] = Postemergence, 250 g ai/ha, scale 0 to 100
[19] = Preemergence, 31 g ai/ha, scale 0 to 100 (0 no effect, 100 complete control)
[20] = Preemergence, 62 g ai/ha, scale 0 to 100, 0 no effect, 100 complete control
[21] = Preemergence, 125 g ai/ha, 0 to 100 scale

5-[(2-hydroxy-6-oxo-1-cyclohexen-1-yl)carbonyl]-3-(2-methoxyethyl)-2-(3-thienyl)-4(3H)-pyrimidinone [Compound 97]
Plant response rating, Lambsquarters [1, 14]: 100 | Plant response rating, Lambsquarters [1, 15]: 80 | Plant response rating, Lambsquarters [1, 16]: 80 | Plant response rating, Lambsquarters [1, 17]: 90 | Lambsquarters plant response rating [1, 18]: 95 | Plant response rating, Lambsquarters [1, 19]: 100 | Plant response rating, Lambsquarters [1, 20]: 100 | Lambsquarters plant response rating [1, 21]: 100 | Plant response rating, Goosegrass [2, 14]: 98 | Plant response rating, Goosegrass [2, 15]: 45 | Plant response rating, Goosegrass [2, 16]: 75 | Plant response rating, Goosegrass [2, 17]: 95 | Goosegrass plant response rating [2, 18]: 98 | Plant response rating, Goosegrass [2, 19]: 0 | Goosegrass plant response rating [2, 21]: 95 | Plant response rating, Johnsongrass [3, 14]: 75 | Plant response rating, Johnsongrass [3, 15]: 0 | Plant response rating, Johnsongrass [3, 16]: 55 | Plant response rating, Johnsongrass [3, 17]: 60 | Johnsongrass plant response rating [3, 18]: 75 | Plant response rating, Johnsongrass [3, 19]: 0 | Plant response rating, Johnsongrass [3, 20]: 10 | Johnsongrass plant response rating [3, 21]: 60 | Plant response rating, Surinam Grass [4, 14]: 80 | Plant response rating, Surinam Grass [4, 15]: 60 | Plant response rating, Surinam Grass [4, 16]: 70 | Plant response rating, Surinam Grass [4, 17]: 70 | Surinam Grass plant response rating [4, 18]: 80 | Plant response rating, Surinam Grass [4, 19]: 0 | Plant response rating, Surinam Grass [4, 20]: 10 | Surinam Grass plant response rating [4, 21]: 15 | Plant response rating, Morningglory [5, 14]: 40 | Plant response rating, Morningglory [5, 15]: 0 | Plant response rating, Morningglory [5, 16]: 45 | Plant response rating, Morningglory [5, 17]: 45 | Morningglory plant response rating [5, 18]: 55 | Plant response rating, Morningglory [5, 19]: 0 | Plant response rating, Morningglory [5, 20]: 0 | Morningglory plant response rating [5, 21]: 0 | Plant response rating, Pigweed [6, 14]: 100 | Plant response rating, Pigweed [6, 15]: 85 | Plant response rating, Pigweed [6, 16]: 85 | Plant response rating, Pigweed [6, 17]: 95 | Pigweed plant response rating [6, 18]: 100 | Plant response rating, Pigweed [6, 19]: 100 | Plant response rating, Pigweed [6, 20]: 100 | Pigweed plant response rating [6, 21]: 100 | Plant response rating, Cupgrass, Woolly [7, 14]: 40 | Plant response rating, Cupgrass, Woolly [7, 15]: 60 | Plant response rating, Cupgrass, Woolly [7, 16]: 70 | Plant response rating, Cupgrass, Woolly [7, 17]: 70 | Cupgrass, Woolly plant response rating [7, 18]: 75 | Plant response rating, Cupgrass, Woolly [7, 19]: 0 | Plant response rating, Cupgrass, Woolly [7, 20]: 10 | Cupgrass, Woolly plant response rating [7, 21]: 35 | Plant response rating, Foxtail, Green [8, 14]: 30 | Plant response rating, Foxtail, Green [8, 15]: 10 | Plant response rating, Foxtail, Green [8, 16]: 25 | Plant response rating, Foxtail, Green [8, 17]: 70 | Foxtail, Green plant response rating [8, 18]: 70 | Plant response rating, Foxtail, Green [8, 19]: 0 | Plant response rating, Foxtail, Green [8, 20]: 0 | Foxtail, Green plant response rating [8, 21]: 0 | Plant response rating, Kochia (kochia (Kochia scoparia); [14]): 100 | Plant response rating, Kochia (kochia (Kochia scoparia); [15]): 10 | Plant response rating, Kochia (kochia (Kochia scoparia); [16]): 15 | Plant response rating, Kochia (kochia (Kochia scoparia); [17]): 15 | Kochia plant response rating (kochia (Kochia scoparia); [18]): 20 | Plant response rating, Kochia (kochia (Kochia scoparia); [19]): 0 | Plant response rating, Kochia (kochia (Kochia scoparia); [20]): 50 | Kochia plant response rating (kochia (Kochia scoparia); [21]): 100 | Plant response rating, Corn (corn (Zea mays); [14]): 0 | Plant response rating, Corn (corn (Zea mays); [15]): 15 | Plant response rating, Corn (corn (Zea mays); [16]): 15 | Plant response rating, Corn (corn (Zea mays); [17]): 45 | Corn plant response rating (corn (Zea mays); [18]): 65 | Plant response rating, Corn (corn (Zea mays); [19]): 0 | Plant response rating, Corn (corn (Zea mays); [20]): 0 | Corn plant response rating (corn (Zea mays); [21]): 0 | Plant response rating, Bromegrass, Downy [9, 14]: 0 | Plant response rating, Bromegrass, Downy [9, 15]: 0 | Plant response rating, Bromegrass, Downy [9, 16]: 0 | Plant response rating, Bromegrass, Downy [9, 17]: 10 | Bromegrass, Downy plant response rating [9, 18]: 20 | Plant response rating, Bromegrass, Downy [9, 19]: 0 | Plant response rating, Bromegrass, Downy [9, 20]: 0 | Bromegrass, Downy plant response rating [9, 21]: 0 | Plant response rating, Crabgrass, Large [10, 14]: 95 | Plant response rating, Crabgrass, Large [10, 15]: 65 | Plant response rating, Crabgrass, Large [10, 16]: 70 | Plant response rating, Crabgrass, Large [10, 17]: 75 | Crabgrass, Large plant response rating [10, 18]: 80 | Plant response rating, Crabgrass, Large [10, 19]: 0 | Plant response rating, Crabgrass, Large [10, 20]: 0 | Crabgrass, Large plant response rating [10, 21]: 70 | Plant response rating, Nutsedge, Yellow [11, 14]: 75 | Plant response rating, Nutsedge, Yellow [11, 15]: 15 | Plant response rating, Nutsedge, Yellow [11, 16]: 55 | Plant response rating, Nutsedge, Yellow [11, 17]: 60 | Nutsedge, Yellow plant response rating [11, 18]: 75 | Plant response rating, Nutsedge, Yellow [11, 19]: 0 | Plant response rating, Nutsedge, Yellow [11, 20]: 0 | Nutsedge, Yellow plant response rating [11, 21]: 55 | Plant response rating, Soybean (soybean (Glycine max); [14]): 75 | Plant response rating, Soybean (soybean (Glycine max); [15]): 95 | Plant response rating, Soybean (soybean (Glycine max); [16]): 95 | Plant response rating, Soybean (soybean (Glycine max); [17]): 95 | Soybean plant response rating (soybean (Glycine max); [18]): 98 | Plant response rating, Soybean (soybean (Glycine max); [19]): 10 | Plant response rating, Soybean (soybean (Glycine max); [20]): 60 | Soybean plant response rating (soybean (Glycine max); [21]): 65 | Plant response rating, Velvetleaf [12, 14]: 100 | Plant response rating, Velvetleaf [12, 15]: 70 | Plant response rating, Velvetleaf [12, 16]: 70 | Plant response rating, Velvetleaf [12, 17]: 75 | Velvetleaf plant response rating [12, 18]: 85 | Plant response rating, Velvetleaf [12, 19]: 55 | Plant response rating, Velvetleaf [12, 20]: 100 | Velvetleaf plant response rating [12, 21]: 100 | Plant response rating, Oat, Wild (wild oat (Avena fatua); [14]): 10 | Plant response rating, Oat, Wild (wild oat (Avena fatua); [15]): 0 | Plant response rating, Oat, Wild (wild oat (Avena fatua); [16]): 5 | Plant response rating, Oat, Wild (wild oat (Avena fatua); [17]): 20 | Oat, Wild plant response rating (wild oat (Avena fatua); [18]): 40 | Plant response rating, Oat, Wild (wild oat (Avena fatua); [19]): 0 | Plant response rating, Oat, Wild (wild oat (Avena fatua); [20]): 0 | Oat, Wild plant response rating (wild oat (Avena fatua); [21]): 0 | Plant response rating, Blackgrass [13, 14]: 20 | Plant response rating, Blackgrass [13, 15]: 0 | Plant response rating, Blackgrass [13, 16]: 0 | Plant response rating, Blackgrass [13, 17]: 50 | Blackgrass plant response rating [13, 18]: 50 | Plant response rating, Blackgrass [13, 19]: 0 | Plant response rating, Blackgrass [13, 20]: 0 | Blackgrass plant response rating [13, 21]: 0
